Source: BigSolDB 2.1

NNC(=O)c1ccncc1
solubility (mole fraction)
Conditions	283.15 K	288.15 K	293.15 K	298.15 K	303.15 K	308.15 K	313.15 K	318.15 K	323.15 K
in DMF	0.023	0.027	0.031	0.035	0.0412	0.0458	0.0511	0.0567	0.0649
in acetonitrile	0.000725	0.000912	0.00109	0.00141	0.00169	0.002	0.00241	0.00288	0.00331
in ethanol	0.00266	0.00318	0.00384	0.00465	0.00549	0.00646	0.00754	0.0087	0.00996
in ethyl acetate	0.000976	0.0012	0.00136	0.0016	0.00195	0.00234	0.00279	0.00331	0.00374
in isopropanol	0.0021	0.00253	0.00314	0.00373	0.00453	0.00558	0.00651	0.00804	0.00949
in methanol	0.00574	0.0067	0.00797	0.00961	0.0112	0.0131	0.0151	0.0179	0.0211
in n-propanol	0.00219	0.00264	0.00329	0.00419	0.00495	0.0059	0.00705	0.0084	0.00983
in water	0.0106	0.0134	0.0159	0.0198	0.024	0.0296	0.0354	0.0421	0.0517
